Entries after “also recorded” stand apart in the source; their conditions may differ.
Experiments:
SD rats = test: Diuretic efficacy of ROMK inhibitors in SD rats; format: in vivo; details: 0.03 and 0.1 mg/kg i.g. once, after urine collection
Experimental: The diuretic efficacy of compound 1 and positive control drug of ROMK inhibitor on SD rats was evaluated.
Male SD rats were purchased from SINO-BRITSH SIPPR/BK LAB. ANIMAL LTD., CO (Shanghai, China, Certificate No. 2008001647752, License SCXK (Shanghai) 2013-0016). The rats were 120-130 g, and fed at 5/cage, in a 12/12 hours light/dark cycle regulation, at a constant temperature of 23±1° C., humidity of 50-60%, and free access to water and food. The male SD rats were acclimated to this condition for 7 days before their use in the diuresis experiment.
The experiment was carried out according to the method disclosed in PCT Patent Application Publication WO2010129379A1. After adaptive feeding, the rats were placed in metabolism cages and fasted overnight. The rats were weighed and randomly divided into the following groups: blank control group, compound 1 tested drug 0.03 mg/kg group and 0.1 mg/kg group, and the positive control group 0.03 mg/kg and group 0.1 mg/kg, with 10 rats for each group. Each rat was intragastrically administered each compound (ig, 1 ml/kg). The rats in the blank control group were fed with the corresponding solvent. After intragastric administration, the rats were placed in the normal cage. After 30 min, 25 ml/kg normal saline was given. Rats were put into the metabolic cages, and fasting for food and water began inmediately. The total urine volume in 4 h was collected and measured. The urinary sodium and urinary potassium excretion in 4 h were also measured. The orbital serum was collected after the collection of urine to test the serum sodium and serum potassium concentrations.
The experimental data were expressed as mean±standard deviation (S.D.). The data was statistically compared using the t test of excel.

[1] = Solubility observed when preparing the drugs for the diuresis experiment; format: physicochemical; details: preparation of the dosing liquid, observation in words
From the text: In this experiment, the solubility of the test compound I was very good. There was no delamination phenomenon. […] After fully grinding, the solubility improved. […] Moreover, the effect was dose-dependent for each dose of the test compound I and the positive control drug.

serum sodium (SD rats) | serum potassium (SD rats; listed as Compound I) | solubility [1] | SMILES | serum potassium (SD rats)
changed a little | no effect | very good | COc1cc(C(=O)NC2CCN(C[C@H](O)c3ccc4c(c3C)COC4=O)CC2)ncc1C#N [Example 1, (R)-5-cyano-N-(1-(2-hydroxy-2-(4-methyl-1-oxo-1,3-dihydroisobenzofuran-5-yl)ethyl)piperidin-4-yl)-4-methoxypicolinamide] | changed a little
changed a little |  | poor solubility | Cc1cc(C(=O)NC2CCN(C[C@H](O)c3ccc4c(c3C)COC4=O)CC2)ncc1C#N [positive control drug] | changed a little; also recorded: no effect
